We go through 7 molecules from patent US8076334B2, “Prodrugs of thyroid hormone analogs” (Hoffmann-La Roche Inc., priority 2007, dated 2011).

For orientation: Papp means the rate of passage across a membrane or cell layer, normalised by area and donor concentration. Low values mean poor permeation, high ones ready permeation. A word on the EC50: it is the concentration that produces a half-maximal response. What is called Tmax is the time at which the peak concentration occurs.

A short description of series [1]: Permeability from Caco-2 cells (transport assay). In kind it is in vitro ADME. To be noted: human; Caco-2 monolayers, transport medium pH 7.4, samples at 60 and 120 min. As to the method: (§1) Caco-2 cells were grown in Minimum Essential Medium (MEM), containing 10% fetal bovine serum, 1% non-essential amino acids, 100 units/ml penicillin and 100 μg/ml streptomycin. They were incubated at 37° C. in a humidified atmosphere of 5% CO2. Culture medium was changed every other day. Caco-2 cells were passed once per week by trypsinization.
(§2) Caco-2 cells were seeded at a density of 4.55×10^5 cells/cm^2. Caco-2 cells were incubated for 7 days at 37° C. Medium was changed every two or three days for Caco-2 cells. Prior to the experiment, cells were equilibrated with transport medium [HBSS (pH 7.4) containing 10 mM HEPES] at 37° C. for 30 min. The transepithelial electrical resistance (TEER) of cell monolayers was measured using “chopstick” electrodes (World Precision Instruments, Sarasota, Fla.). Caco-2 cell monolayers with TEER values>500 were used for the assays.
(§3) Samples were prepared in transport medium containing 1% DMSO. Test compounds were applied to the donor chamber at 10 μM. Plates were incubated at 37 °C while shaking at 90 rpm. Samples were taken at 60 and 120 min from the receiver chamber. TEER values were measured at 5 minutes before the final sampling time point. Samples were mixed with 2 volumes of acetonitrile and centrifuged at 3,500 rpm at 4° C. for 10 min. The supernatant was diluted with 1 volume of water containing 1% acetic acid. Samples were analyzed by LC/MS. Standard serial dilutions were prepared manually at 10, 50, 250, 1,250 and 2,500 nM.
(§4) The apparent permeability (Papp) was calculated with the following equation:
(§5) [formula] where C is the receiver chamber drug concentration, t is time in second, V is the volume of the receiver chamber, Co is the initial drug concentration in the donor chamber and A is the surface area of the filter.
On the technique in general: Passage across Caco-2 layers is used to estimate intestinal permeability.

The subject of series [2] is Caco-2 cells. The experiment in a line: Permeability from Caco-2 cells (transport assay). In kind it is in vitro ADME. The following applies: Caco-2; calculated from pro-drug only, does not include converted drug; in % (unit assumed). As to the method:
as §1, §2, §3, §4, §5

A short description of series [3]: Single dose PO PK in rats. In kind it is in vivo. To be noted: rat, 10 mg/kg PO. As to the method:
A single dose (10 mg/kg) PO (intubation) PK in rats (3 animals) was performed with the compound of Example 5 using a 2% Klucel, 0.1% Tween 80 in water formulation.
Aliquots (0.05 mL) of rat plasma were protein precipitated with acetonitrile. The extracts were diluted with an equal volume of water and injected onto the LC/MS/MS system.
Both the prodrug and parent, compound Ia, were monitored. […] Variability in exposure of the parent after dosing with the prodrug was improved over that obtained after dosing with parent.

Series [4] in a line: Single dose PO PK in dogs. To be noted: dog, 10 mg/kg PO. In kind it is in vivo. As to the method: A single dose (10 mg/kg) PO (intubation) PK in dogs (3 animals) was performed with the compound of Example 5 using a 2% Klucel, 0.1% Tween 80 in water formulation.
Aliquots (0.05 mL) of dog plasma were mixed with 0.050 mL of pH 7.4 phosphate buffered saline and a 0.010 mL aliquot of a stable labeled internal standard working solution. Each of the samples was then extracted with 0.500 mL of ethyl acetate. A 0.350 mL aliquot of each of the sample extract supernatant was transferred to an injection block and evaporated to dryness using the turbovap evaporator. The sample was then reconstituted with 0.200 mL of a 1:1 mixture of water:acetonitrile containing 0.1% acetic acid. A 0.020 mL sample from each well was injected onto the LC/MS/MS system.
The compound of Example 5was dosed orally to dogs at 10 mg/kg. Both the prodrug and parent, compound Ia, were monitored. […] However, the variability in the oral exposure was reduced when dosed with the compound of Example 5 as compared when dosed with parent.

Series [5] has as its target T1, THR-beta/RXR/GRIP (Homo sapiens, UniProt P10828).
T1 construct: made in house; host or cells: E. coli BL21 (DE3) for H6-TRβ; E. coli for EE-RxRα
T1 sequence (P10828 202-461 limits assumed): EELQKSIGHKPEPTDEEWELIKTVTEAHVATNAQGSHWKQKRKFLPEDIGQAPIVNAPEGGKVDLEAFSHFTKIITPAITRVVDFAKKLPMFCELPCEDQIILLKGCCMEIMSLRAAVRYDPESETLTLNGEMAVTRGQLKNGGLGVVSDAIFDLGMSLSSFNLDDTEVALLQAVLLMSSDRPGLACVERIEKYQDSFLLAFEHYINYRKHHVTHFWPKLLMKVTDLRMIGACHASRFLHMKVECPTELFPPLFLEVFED
T1 sequence (P19793 225-462 partner limits assumed): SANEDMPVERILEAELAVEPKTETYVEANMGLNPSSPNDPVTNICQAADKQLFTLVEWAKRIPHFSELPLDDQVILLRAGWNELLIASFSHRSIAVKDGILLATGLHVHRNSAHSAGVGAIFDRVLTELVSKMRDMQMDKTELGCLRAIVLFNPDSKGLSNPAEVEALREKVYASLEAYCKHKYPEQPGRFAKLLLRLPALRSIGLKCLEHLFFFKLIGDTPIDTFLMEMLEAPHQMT
T1 sequence (Q15596 679-703 partner limits assumed): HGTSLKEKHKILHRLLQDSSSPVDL
Briefly: THR-beta/RXR/GRIP coactivator peptide recruitment assay (HTRF). In kind it is biochemical. The following applies: H6-TRβ ligand binding domain, EE-RxRα, biotin-GRIP peptide. As to the method: In this Example, a TR/RXR/GRIP assay was used to test representative compounds of formula (I).
Lysozyme (1.0 mg/ml, Sigma) and Complete Protease Inhibitor Cocktail (Roche Diagnostics Gmbh) were added to slurry and solution sonicated for one min five times at 4° C.
The resulting His6-EE-tagged protein was produced in E. coli cells. Cells were grown using shake flasks with an 18 hour induction in 0.1 mM IPTG at 18° C., harvested and suspended with five volumes of Buffer B (0.025M Tris, 0.3M NaCl, 0.02 M imidazole, 0.01M β-mercaptoethanol, pH 8.0). Lysozyme (0.2 mg/ml, Sigma) and Complete Protease Inhibitor Cocktail (Roche Diagnostics Gmbh) were added and stirred for 30 min. at 4° C. The suspension was sonicated for 30 seconds, five times, at 4° C. The suspension was centrifuged for 20 min. at 12,000 RCF. The supernatant was filtered by 0.45 μm pore size membrane and 0.5% NP-40 was added. […] The protein was concentrated and dialyzed.
The His6 tag was removed from EE-RxRα by thrombin digestion, using 10 units thrombin (Pharmacia, Piscataway, N.J.) per mg protein and incubating for 2 hours at 25° C. […]
Six microliters of T3 (0-14.8 uM) or test compound (0-1.2 mM) in DMSO was then added and the solution incubated at 37° C. for 30 min. […] The HTRF signal was read on the Victor 5 reader (PerkinElmer Life and Analytical Sciences).

The mark [6] stands for this setting: plasma level of parent compound Ia.

For the molecule `CC(=O)OCn1nc(Oc2c(Cl)cc(-n3nc(C#N)c(=O)[nH]c3=O)cc2Cl)cc(C(C)C)c1=O` [Example 2, Acetic acid 3-[2,6-dichloro-4-(6-cyano-3,5-dioxo-4,5-dihydro-3H-[1,2,4]triazin-2-yl)-phenoxy]-5-isopropyl-6-oxo-6H-pyridazin-1-ylmethyl ester], in series [1], the apparent permeability (Papp) at 120 min, 10 μM came to 4.58 ± 0.74 ×10⁻⁶ cm/s. Also, the “Mass Balance” value in series [2] is reported as 71.0.

Regarding `CC(C)C(=O)OCn1nc(Oc2c(Cl)cc(-n3nc(C#N)c(=O)[nH]c3=O)cc2Cl)cc(C(C)C)c1=O` [Example 5, Isobutyric acid 3-[2,6-Dichloro-4-(6-cyano-3,5-dioxo-4,5-dihydro-3H-[1,2,4]triazin-2-yl)-phenoxy]-5-isopropyl-6-oxo-6H-pyridazin-1-ylmethyl ester], in series [3], the “Absorption of the prodrug compared with the parent” value is recorded as “faster than the parent” and the “Variability in exposure of the parent after dosing with the prodrug versus dosing with parent” value is “improved”. For the same molecule, in series [3] (prodrug and parent monitored), the “Species detected in plasma after oral dosing of the prodrug” value is “only the parent was detected”. Moreover, the apparent permeability (Papp) at 120 min, 10 μM in series [1] came out at 8.87 ± 0.63 ×10⁻⁶ cm/s. Also, the “Mass Balance” value in series [2] is listed as 47.9. In series [4], the “Bioavailability of parent after dosing with the prodrug versus dosing with parent” value is listed as “comparable” and the “Variability in the oral exposure versus dosing with parent” value is “reduced”. Besides, the “Species detected in plasma after oral dosing of the prodrug” value in series [4] (prodrug and parent monitored) was “only the parent was detected”. Moreover, the 50% effective concentration (EC50) in series [5] was greater than 57.6 µM.

Consider `CC(C)c1cc(Oc2c(Cl)cc(-n3nc(C#N)c(=O)[nH]c3=O)cc2Cl)nn(COC(=O)N2CCOCC2)c1=O` [Example 6, Morpholine-4-carboxylic acid 3-[2,6-dichloro-4-(6-cyano-3,5-dioxo-4,5-dihydro-3H-[1,2,4]triazin-2-yl)-phenoxy]-5-isopropyl-6-oxo-6H-pyridazin-1-ylmethyl ester], for which, in series [1], the Papp at 120 min, 10 μM was found to be 1.24 ± 0.24 ×10⁻⁶ cm/s. The “Mass Balance” value in series [2] is on record as 101.5.

Consider `CC(C)c1cc(Oc2c(Cl)cc(-n3nc(C#N)c(=O)[nH]c3=O)cc2Cl)nn(COC(=O)c2cnccn2)c1=O` [Example 8, Pyrazine-2-carboxylic acid 3-[2,6-dichloro-4-(6-cyano-3,5-dioxo-4,5-dihydro-3H-[1,2,4]triazin-2-yl)-phenoxy]-5-isopropyl-6-oxo-6H-pyridazin-1-ylmethyl ester], for which the Papp at 120 min, 10 μM in series [1] came out at 0.92 ± 0.11 ×10⁻⁶ cm/s. Also, the “Mass Balance” value in series [2] is on record as 92.8.

Turning to `CC(C)c1cc(Oc2c(Cl)cc(-n3nc(C#N)c(=O)[nH]c3=O)cc2Cl)nn(COC(=O)CN2CCOCC2)c1=O` [Example 12, Morpholin-4-yl-acetic acid 3-[2,6-dichloro-4-(6-cyano-3,5-dioxo-4,5-dihydro-3H-[1,2,4]triazin-2-yl)-phenoxy]-5-isopropyl-6-oxo-6H-pyridazin-1-ylmethyl ester], the apparent permeability (Papp) at 120 min, 10 μM in series [1] came to 1.75 ± 0.65 ×10⁻⁶ cm/s. Besides, in series [2], the “Mass Balance” value is reported as 95.0.

Take `CC(C)c1cc(Oc2c(Cl)cc(-n3nc(C#N)c(=O)[nH]c3=O)cc2Cl)nn(COC(=O)CCC(=O)O)c1=O` [Example 13, Succinic acid mono-{3-[2,6-dichloro-4-(6-cyano-3,5-dioxo-4,5-dihydro-3H-[1,2,4]triazin-2-yl)-phenoxy]-5-isopropyl-6-oxo-6H-pyridazin-1-ylmethyl}ester]: the apparent permeability (Papp) at 120 min, 10 μM in series [1] was found to be 0.23 ± 0.06 ×10⁻⁶ cm/s. In series [2], the “Mass Balance” value was 84.4.

In the case of `CC(C)c1cc(Oc2c(Cl)cc(-n3nc(C#N)c(=O)[nH]c3=O)cc2Cl)n[nH]c1=O` [Ia, 2-[3,5-Dichloro-4-(5-isopropyl-6-oxo-1,6-dihydro-pyridazin-3-yloxy)-phenyl]-3,5-dioxo-2,3,4,5-tetrahydro-[1,2,4]triazine-6-carbonitrile, reference compound], in series [3] (setting [6]), the “AUC Extrap” value is given as 28,663 ng * Hours/mL and the Tmax is 5 h. For the same molecule, in series [4] (setting [6]), the AUC is given as 2,936 ng * Hours/mL and the Tmax worked out at 3 h.
